Assay results published in article PMC6514978, “Synthesis, Antibacterial Activities, Mode of Action and Acute Toxicity Studies of New Oxazolidinone-Fluoroquinolone Hybrids” (Molecules, 2019).
In brackets after ≈: the same amount, converted by molar mass.

How the values were obtained:
E. coli Topo IV = molecular target: T1, E. coli Topo IV (Escherichia coli, UniProt P0AFI2+P20083); experiment: Topo IV relaxation assay; assay type: biochemical; conditions: relaxation of supercoiled pBR322, 37 °C, 30 min
T1 construct: purchased Inspiralis Co., Ltd; host or cells: overexpressing E. coli
T1 sequence (P20083 whole entry): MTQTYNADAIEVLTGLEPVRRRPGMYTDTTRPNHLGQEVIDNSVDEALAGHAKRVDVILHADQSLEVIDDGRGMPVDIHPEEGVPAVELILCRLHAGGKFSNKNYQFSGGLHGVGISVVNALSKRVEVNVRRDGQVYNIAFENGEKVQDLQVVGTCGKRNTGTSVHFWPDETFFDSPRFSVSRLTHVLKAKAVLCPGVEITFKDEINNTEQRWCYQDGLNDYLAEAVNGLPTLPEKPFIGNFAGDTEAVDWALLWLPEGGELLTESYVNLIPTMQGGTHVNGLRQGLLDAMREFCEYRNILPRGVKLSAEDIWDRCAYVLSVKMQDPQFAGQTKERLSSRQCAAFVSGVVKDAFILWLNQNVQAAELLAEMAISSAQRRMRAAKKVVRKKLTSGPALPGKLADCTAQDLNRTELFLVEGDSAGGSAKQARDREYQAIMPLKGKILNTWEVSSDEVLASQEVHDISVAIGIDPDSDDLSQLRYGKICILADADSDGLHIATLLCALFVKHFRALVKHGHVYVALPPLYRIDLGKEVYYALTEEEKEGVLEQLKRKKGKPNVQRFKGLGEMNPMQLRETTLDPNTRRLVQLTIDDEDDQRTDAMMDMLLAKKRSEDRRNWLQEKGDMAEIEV
T1 sequence (P0AFI2 whole entry): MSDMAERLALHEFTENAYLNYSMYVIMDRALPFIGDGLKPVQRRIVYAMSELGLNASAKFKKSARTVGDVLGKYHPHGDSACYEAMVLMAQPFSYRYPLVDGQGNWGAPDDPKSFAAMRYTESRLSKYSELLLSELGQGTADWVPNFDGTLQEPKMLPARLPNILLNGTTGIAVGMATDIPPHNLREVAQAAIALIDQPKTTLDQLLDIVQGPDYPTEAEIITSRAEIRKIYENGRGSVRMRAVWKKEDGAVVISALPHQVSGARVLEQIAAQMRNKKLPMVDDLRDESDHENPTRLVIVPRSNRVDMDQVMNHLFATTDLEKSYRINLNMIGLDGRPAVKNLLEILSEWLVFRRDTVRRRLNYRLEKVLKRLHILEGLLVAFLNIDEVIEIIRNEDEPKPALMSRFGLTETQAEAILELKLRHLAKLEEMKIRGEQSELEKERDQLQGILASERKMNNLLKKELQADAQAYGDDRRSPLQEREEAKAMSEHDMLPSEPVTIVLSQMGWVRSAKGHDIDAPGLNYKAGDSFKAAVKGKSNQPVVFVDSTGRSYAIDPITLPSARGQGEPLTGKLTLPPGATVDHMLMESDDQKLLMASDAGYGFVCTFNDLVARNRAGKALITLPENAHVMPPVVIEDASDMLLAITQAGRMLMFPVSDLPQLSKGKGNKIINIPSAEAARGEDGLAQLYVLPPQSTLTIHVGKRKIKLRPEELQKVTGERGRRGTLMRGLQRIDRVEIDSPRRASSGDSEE
Protocol: The E. coli Topo IV Relaxation Assay Kit (Inspiralis Co., Ltd.) was used to evaluate the effects of hybrids OBP-4 and OBP-5 against topo IV. Topo IV was prepared by the overexpressing E. coli. One unit of topo IV will relax 0.4 μg of supercoiled pBR322. In the assay, the final reaction mixtures (30 μL) consisted of 0.4 μg supercoiled pBR322 and one unit DNA Topo IV with or without compounds in assay buffer with 40 mM Hepes-KOH (pH 7.6), 100 mM potassium glutamate, 10 mM magnesium acetate, 10 mM DTT, 1 mM ATP and 50 μg/mL albumin, and then was incubated at 37 °C for 30 min. The reaction was terminated by adding 30 μL of STEB and 30 μL of chloroform/isoamyl alcohol (v:v, 24:1) after incubation for 30 min. Then, the reaction products were processed as described in a DNA gyrase supercoiling assay.

[1] = Acute oral toxicity, limit test (OECD 425); assay type: in vivo; conditions: female, Kunming, mouse, in vivo, 2000 mg/kg·bw; mice, single oral dose, limit test 2000 mg/kg, 14 d observation
Protocol: (§1) Female Kunming mice (SPF grade, 18–22 g) were obtained from laboratory animal center of Lanzhou Veterinary Research Institute (Lanzhou, China). Mice were maintained under the standard conditions of 12 h light/dark cycle, room temperate (22 ± 3 °C), 50–60% relative humidity. They were fed normally with an unlimited supply of feed and water for seven days and deprived of food but not water for 4 h prior to the experiment. The toxicity test was supported by the Animal Ethics Committee of Lanzhou Institute of Husbandry and Pharmaceutical Sciences.
(§2) The acute toxicity of hybrids OBP-4 and OBP-5 was conducted by the limit test described in the OECD guideline 425 [39]. The mice were divided randomly into two groups, five animals in each group. One group of mice received a single oral dose of hybrids OBP-4 or OBP-5 at 2000 mg/kg·bw, and the other group of mice was given the equal volume of 0.5% CMC-Na solution (0.1 mL/10 g of body weight). Food was restored until 4 h after administration. The observation of each animal occurred according to the OECD guideline 425 [27], meaning continuously during the first 30 min, periodically during the next 24 h, and then daily thereafter until 14 d after dosing. The weight changes and mortality were calculated and recorded. The mice that survived were humanely killed at the end of the experiment.

Female Kunming mice = experiment: Acute oral toxicity, limit test (OECD 425); assay type: in vivo; conditions: single oral dose 2000 mg/kg, 14 d observation
Protocol: as §1, §2

Gram-positive isolates = experiment: MIC summary, clinical isolates; assay type: cell-based; conditions: for MIC90: Gram-positive clinical isolates, read-out: MIC90 values for Gram-positive isolates (span over species)
Text: 6 standard strains and 3 clinical isolates were used to the preliminary evaluation of in vitro antibacterial activities of oxazolidinone-fluoroquinolone hybrids. For the further evaluation of hybrids OBP-4 and OBP-5, 263 clinical isolates including S. aureus (46), S. haemolyticus(32), S. epidermidis (10), E. faecalis (72), E. faecium (47), S. pneumoniae (13), H. parasuis (34), S. suis (9), and 8 resistant strains including MRSA, MRSE, CIP-resistant S. aureus and S. haemolyticus, VAN and quinolone-resistant S. pneumoniae, LZD-resistant E. faecalis, LZD/VAN and quinolone-resistant E. faecium were collected and tested.
Susceptibility testing of oxazolidinone-fluoroquinolone hybrids against various bacteria was performed by the broth microdilution method as outlined by the Clinical and Laboratory Standards Institute (CLSI). Three types of media, including cation-adjusted Mueller Hinton broth, Haemophilus Test Medium and cation-adjusted Mueller Hinton broth that contained 3%–5% lysed horse blood, were used to culture the corresponding bacteria. All compounds including comparator drugs were dissolved in an appropriate solvent at a concentration of 2.048 mg/mL and then serially diluted two-fold to provide the required concentrations. A final inoculum of 5 × 10^5 CFU/mL was used and plates were read after incubation for 16–24 h at 35 °C. […] Standard quality control strains (ATCC) were included throughout. Each determination was repeated in triplicate.

| Structure (SMILES) | IC50 (E. coli Topo IV) [µM] | LD50 at 14 d [1] [mg/kg] | death and toxicity signs (Female Kunming mice) | MIC90 (Gram-positive isolates) [µg/mL] | fold greater activity than OBP-4, overall (Gram-positive isolates; tested clinical isolates) [fold] |
| --- | --- | --- | --- | --- | --- |
| C[C@H]1CCc2c(N3CCC(O)(COc4ccc(N5C[C@H](CO)OC5=O)cc4F)CC3)c(F)cc3c(=O)c(C(=O)O)cn1c23 [OBP-4] | 10 to 15 | > 2000 | No death and any toxicity signs were observed | 0.125 to 0.25 (≈ 0.208 to 0.417 µM) |  |
| CC1Sc2c(C(=O)O)c(=O)c3cc(F)c(N4CCC(O)(COc5ccc(N6C[C@H](CO)OC6=O)cc5F)CC4)cc3n21 (stereo partly drawn) [OBP-5] | > 40 | > 2000 | No death and any toxicity signs were observed | 0.0625 to 0.25 (≈ 0.104 to 0.414 µM) | 2 |
